# Patent US12616669B2, “Methods and chemical compositions for treating skin conditions by providing long lasting skin pH control for improving skin barrier function” (Soteri Skin, Inc., priority 2021, dated 2026)
# Like-named read-outs stand apart in the source and are kept apart here.
# Legend:
# [1] = in vivo
# [2] = cited from earlier work
# [3] = Evaluation of various buffering systems on human skin; details: sensitive, healthy or eczema affected skin
SMILES,skin irritation / tolerability [1],other results
O=C(O)CC(O)(CC(=O)O)C(=O)O [Citric acid],well tolerated on healthy and eczema affected skin,
O=C(O)[C@H](O)[C@@H](O)[C@H](O)[C@H](O)CO [Gluconic acid],well tolerated on healthy and eczema affected skin,
N[C@@H](CC(=O)O)C(=O)O [aspartic acid],,pKa [2]: around 3.65
O=C(O)CO [glycolic acid],,skin irritation / tolerability [3]: may be irritating for sensitive skin
CC(O)C(=O)O (centres unmarked) [lactic acid],may be irritating for sensitive skin,
